Data from patent publication US20170265474A1, “BICYCLIC COMPOUNDS AS PEST CONTROL AGENTS” (BAYER CROPSCIENCE AKTIENGESELLSCHAFT, priority 2014, published 2017).
Where two headings read alike, the source gives them in different places.

Experiments:
[1] = log P by HPLC on reversed-phase (C18) columns, OECD Guideline 117; type: physicochemical; details: reversed-phase (C18) HPLC column
Method: The log P values were determined in accordance with OECD Guideline 117 (EC Directive 92/69/EEC) by HPLC (high-performance liquid chromatography) using reversed-phase (RP) columns (C18), by the following methods: [a] The LC-MS determination in the acidic range is carried out at pH 2.7 with 0.1% aqueous formic acid and acetonitrile (contains 0.1% formic acid) as eluents; linear gradient from 10% acetonitrile to 95% acetonitrile. [b] LC-MS determination in the neutral range is effected at pH 7.8 with 0.001 molar aqueous ammonium hydrogencarbonate solution and acetonitrile as eluents; linear gradient from 10% acetonitrile to 95% acetonitrile. Calibration is carried out using unbranched alkan-2-ones (having 3 to 16 carbon atoms) with known log P values (log P values determined on the basis of the retention times by linear interpolation between two successive alkanones).

[2] = tested on: Myzus persicae; assay: Myzus persicae spray test (Chinese cabbage leaf discs); type: in vivo, green peach aphid (Myzus persicae); details: foliar, 144 h, application rate 500 g/ha, after 6 days, 100% = all aphids killed, read-out: efficacy
Method: Myzus persicae—Spray Test • Solvent: 78 parts by weight of acetone • 1.5 parts by weight of dimethylformamide • Emulsifier: alkylaryl polyglycol ether To produce a suitable preparation of active compound, 1 part by weight of active compound is dissolved using the specified parts by weight of solvent and made up with water containing an emulsifier concentration of 1000 ppm until the desired concentration is attained. To produce further test concentrations, the formulation is diluted with emulsifier-containing water. Discs of Chinese cabbage leaves (Brassica pekinensis) infested by all stages of the green peach aphid (Myzus persicae) are sprayed with an active compound formulation of the desired concentration. After 6 days, the efficacy in % is determined. 100% means that all the aphids have been killed; 0% means that no aphids have been killed.

[3] = tested on: Myzus persicae; assay: Myzus persicae spray test (bell pepper plants); type: in vivo, green peach aphid (Myzus persicae); details: after 6 days
Method: Myzus persicae—Spray Test • Solvent: 7 parts by weight of dimethylformamide • Emulsifier: alkylaryl polyglycol ether To produce a suitable preparation of active compound, 1 part by weight of active compound is dissolved using the specified parts by weight of solvent and made up with water containing an emulsifier concentration of 1000 ppm until the desired concentration is attained. To produce further test concentrations, the formulation is diluted with emulsifier-containing water. If the addition of ammonium salts or/and penetrants is required, these are each added in a concentration of 1000 ppm to the formulation solution. Bell pepper plants (Capsicum annuum) severely infested with the green peach aphid (Myzus persicae) are treated by spraying with the active compound formulation in the desired concentration. After 6 days, the kill in % is determined. 100% means that all of the aphids have been killed; 0% means that none of the aphids have been killed.

[4] = tested on: Tetranychus urticae; assay: Tetranychus urticae spray test, OP-resistant (bean leaf discs); type: in vivo, greenhouse red spider mite (Tetranychus urticae); details: application rate 500 g/ha, after 6 days, 100% = all spider mites killed
Method: Tetranychus urticae—Spray Test, OP-Resistant • Solvent: 78.0 parts by weight of acetone • 1.5 parts by weight of dimethylformamide • Emulsifier: alkylaryl polyglycol ether
To produce a suitable preparation of active compound, 1 part by weight of active compound is dissolved using the specified parts by weight of solvent and made up with water containing an emulsifier concentration of 1000 ppm until the desired concentration is attained. To produce further test concentrations, the formulation is diluted with emulsifier-containing water.
Discs of bean leaves (Phaseolus vulgaris) infested with all stages of the greenhouse red spider mite (Tetranychus urticae) are sprayed with an active compound formulation of the desired concentration.
After 6 days, the efficacy in % is determined. 100% means that all the spider mites have been killed; 0% means that no spider mites have been killed.

[5] = tested on: Aphis gossypii; assay: Aphis gossypii spray test (cotton plants); type: in vivo, cotton aphid (Aphis gossypii); details: application rate 4 ppm, after 6 days
Method: Aphis gossypii—Spray Test • Solvent: 7 parts by weight of dimethylformamide • Emulsifier: alkylaryl polyglycol ether To produce a suitable preparation of active compound, 1 part by weight of active compound is dissolved using the specified parts by weight of solvent and made up with water containing an emulsifier concentration of 1000 ppm until the desired concentration is attained. To produce further test concentrations, the formulation is diluted with emulsifier-containing water. If the addition of ammonium salts or/and penetrants is required, these are each added in a concentration of 1000 ppm to the formulation solution. Cotton plants (Gossypium hirsutum) which are heavily infested by the cotton aphid (Aphis gossypii) are sprayed with an active compound formulation of the desired concentration. After 6 days, the kill in % is determined. 100% means that all the aphids have been killed; 0% means that no aphids have been killed.

[6] = acidic range, pH 2.7, 0.1% aqueous formic acid / acetonitrile, read-out: logP[a]
[7] = neutral range, pH 7.8, 0.001 molar aqueous ammonium hydrogencarbonate / acetonitrile, read-out: logP[b]

chromatographic logP [1, 6] | chromatographic logP [1, 7] | Compound | pest or weed control at 500 g/ha [2] | further results
2.1 | – | O=C(Nc1cccc(S(=O)(=O)C(F)(F)F)c1)c1ccc2nc(-c3cccnc3)sc2n1 [Example 34] | – | –
1.18 | – | CS(=O)(=O)CCC(=O)Nc1ccc2nc(-c3cccnc3)sc2n1 [Example 38] | – | –
2.61 | – | O=C(Nc1ccc2nc(-c3cccnc3)sc2n1)c1cccc([S+]([O-])C(F)(F)F)c1 (stereo not shown) [Example 37] | – | –
3.09 | – | O=C(Nc1cccc([S+]([O-])C(F)(F)F)c1)c1ccc2nc(-c3cccnc3)sc2n1 (stereo not shown) [Example 36] | – | –
2.03 | – | CSCCNC(=O)c1ccc2nc(-c3cccnc3)sc2n1 [Example 35] | 90% | –
2.75 | 2.77 | Cc1ccc(Nc2ccc3nc(-c4cccnc4)sc3n2)cc1[S+]([O-])CC(F)(F)F (stereo not shown) [Example 42] | – | –
1.53 | – | CCN(C)C(=O)c1ccc2nc(-c3cccnc3)sc2n1 [Example 33] | – | –
2.26 | 2.33 | Clc1ccc2nc(-c3cccnc3)sc2n1 [Example 40] | – | –
3.79 | 3.83 | FC(F)(F)c1ccn(-c2ccc3nc(-c4cccnc4)sc3n2)n1 [Example 39] | – | –

Further lines, the compound ahead of its results:

Compound | chromatographic logP [1, 6] | chromatographic logP [1, 7] | pest or weed control at 500 g/ha [2] | further results
CN(C(=O)CCS(C)(=O)=O)c1ccc2nc(-c3cccnc3)sc2n1 [Example 30, N-Methyl-3-(methylsulfonyl)-N-[2-(pyridin-3-yl)[1,3]thiazolo[5,4-b]pyridin-5-yl]propanamide] | 1.25 | – | 90% | –
FC(F)(F)c1cnn(-c2ccc3nc(-c4cccnc4)sc3n2)c1 [Example 13, 2-(3-Pyridyl)-5-[4-(trifluoromethyl)pyrazol-1-yl]thiazolo[5,4-b]pyridine] | 3.82 | 3.72 | – | –
CSCCC(=O)N(C)c1ccc2nc(-c3cccnc3)sc2n1 [Example 22] | 1.98 | – | 90% | –
Cc1cc(F)c(-c2ccc3nc(-c4cccnc4)sc3n2)cc1[S+]([O-])CC(F)(F)F (stereo not shown) [Example 3, 5-[2-Fluoro-4-methyl-5-(2,2,2-trifluoroethylsulfinyl)phenyl]-2-(3-pyridyl)thiazolo[5,4-b]pyridine] | 3.02 | 3.09 | – | efficacy (kill) ([3]; application rate 4 ppm): 97%
c1cncc(-c2nc3ccc(N4CCOCC4)nc3s2)c1 [Example 11, 4-[2-(3-Pyridyl)thiazolo[5,4-b]pyridin-5-yl]morpholine] | 2.1 | 1.95 | 90% | –
Cc1ccc(Nc2ccc3nc(-c4cccnc4)sc3n2)cc1SCC(F)(F)F [Example 9, N-[4-Methyl-3-(2,2,2-trifluoroethylsulfanyl)phenyl]-2-(3-pyridyl)thiazolo[5,4-b]pyridine-5-amine] | 3.99 | 4.06 | – | efficacy [4]: 90%
c1cncc(-c2nc3ccc(N4CCCC4)nc3s2)c1 [Example 6, 2-(3-Pyridyl)-5-pyrrolidin-1-ylthiazolo[5,4-b]pyridine] | 2.53 | 2.97 | – | efficacy (kill) ([3]; application rate 100 ppm): 95%
CN(C(=O)c1cccc([S+]([O-])C(F)(F)F)c1)c1ccc2nc(-c3cccnc3)sc2n1 (stereo not shown) [Example 29] | 2.23 | – | 100% | –
Cc1ccc(-c2ccc3nc(-c4cccnc4)sc3n2)cc1SCC(F)(F)F [Example 2, 5-[4-Methyl-3-(2,2,2-trifluoroethylsulfanyl)phenyl]-2-(3-pyridyl)thiazolo[5,4-b]pyridine] | 4.67 | 4.64 | 90% | efficacy (kill) ([3]; application rate 4 ppm): 100%
c1cnc(-c2ccc3nc(-c4cccnc4)sc3n2)nc1 [Example 7, 2-(3-Pyridyl)-5-pyrimidin-2-ylthiazolo[5,4-b]pyridine] | 1.43 | 1.5 | – | efficacy (kill) [5]: 80%
CN(C(=O)c1cccc(S(=O)(=O)C(F)(F)F)c1)c1ccc2nc(-c3cccnc3)sc2n1 [Example 31] | 1.54 | – | 90% | –
CNc1ccc2nc(-c3cccnc3)sc2n1 [Example 15] | 1.34 | – | – | –
c1ccc(-c2ccc3nc(-c4cccnc4)sc3n2)nc1 [Example 8, 5-(2-Pyridyl)-2-(3-pyridyl)thiazolo[5,4-b]pyridine] | 2.12 | 2.68 | – | efficacy (kill) ([3]; application rate 4 ppm): 80%
FC(F)(F)c1ccc2nc(-c3cccnc3)sc2n1 [Example 10, 2-(3-Pyridyl)-5-(trifluoromethyl)thiazolo[5,4-b]pyridine] | 2.65 | 2.69 | – | efficacy [4]: 90%
Cc1ccc(N(C)c2ccc3nc(-c4cccnc4)sc3n2)cc1SCC(F)(F)F [Example 12, N-methyl-N-[4-methyl-3-(2,2,2-trifluoroethylsulfanyl)phenyl]-2-(3-pyridyl)thiazolo[5,4-b]pyridine-5-amine] | 4.81 | 4.78 | 90% | –
Cc1cc(F)c(-c2ccc3nc(-c4cccnc4)sc3n2)cc1SCC(F)(F)F [Example 1, 5-[2-Fluoro-4-methyl-5-(2,2,2-trifluoroethylsulfanyl)phenyl]-2-(3-pyridyl)thiazol [5,4-b]pyridine] | 4.81 | 4.75 | 100% | efficacy (kill) ([3]; application rate 4 ppm): 100%
Cc1ccc(-c2ccc3nc(-c4cccnc4)sc3n2)cc1[S+]([O-])CC(F)(F)F (stereo not shown) [Example 4, 5-[4-Methyl-3-(2,2,2-trifluoroethylsulfinyl)phenyl]-2-(3-pyridyl)thiazolo[5,4-b]pyridine] | 2.99 | 2.98 | 90% | efficacy (kill) ([3]; application rate 4 ppm): 95%
CNC(=O)c1ccc2nc(-c3cccnc3)sc2n1 [Example 32] | 1.35 | – | – | –
